Laboratory results as given in BindingDB's records for doi:10.1021/bi5004519 (University of Pennsylvania, 2014).
pKd, pKi: −log10 of the molar value.

How the values were obtained:
[1] = target: T1, Arginase (Schistosoma mansoni, UniProt Q6WVP6); assay: ITC; settings: pH 8.5
T1 sequence (Q6WVP6 whole entry): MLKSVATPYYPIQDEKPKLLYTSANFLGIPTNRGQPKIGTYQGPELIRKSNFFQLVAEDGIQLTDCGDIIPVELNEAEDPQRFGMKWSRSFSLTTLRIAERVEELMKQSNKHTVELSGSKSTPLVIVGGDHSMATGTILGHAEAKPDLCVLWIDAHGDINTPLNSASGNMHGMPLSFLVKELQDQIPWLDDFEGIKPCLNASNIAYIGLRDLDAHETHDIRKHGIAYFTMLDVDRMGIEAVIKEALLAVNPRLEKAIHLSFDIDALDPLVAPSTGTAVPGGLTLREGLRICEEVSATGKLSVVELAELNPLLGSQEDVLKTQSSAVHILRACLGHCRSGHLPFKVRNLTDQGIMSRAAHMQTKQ
Protocol: SmARG was dialyzed against 50 mM bicine (pH 8.5), 100 μM MnCl2, and 1.0 mM TCEP [5% (v/v) DMSO was included in the dialysis buffer when SmARG was titrated with ABH-PE and ABH-DP]. The inhibitor (ABH, 0.547 mM; NOHA, 1.097 mM; nor-NOHA, 0.443 mM; ABH-PE, 0.410 mM; ABH-DP, 0.436 mM) was dissolved in dialysis buffer.

[2] = target: T1, Arginase; assay: Archibald assay; settings: pH 8.5
Protocol: Briefly, 0.5-50 mM L-arginine (pH 8.5) was added to a solution of 50 mM 4-(2-hydroxyethyl)piperazine-1-propanesulfonic acid (EPPS) (pH 8.5) and 100 μM MnCl2. The reaction (200 μL) was initiated by adding 1 μM SmARG at 21°C and terminated after 1 min using 30 μL of a 3:1 (v/v) concentrated acid/dye solution.

N[C@@](CCCCB(O)O)(C(=O)O)C1CCN(Cc2ccc(Cl)c(Cl)c2)CC1 [(R)-2-amino-6-borono-2-[1-(3,4-dichlorobenzyl)piperidin-4-yl]hexanoic acid (ABH-DP)]
pKd [1]: 6.27

N[C@](CCCCB(O)O)(CCN1CCCCC1)C(=O)O
pKd [1]: 6.59

N[C@@H](CCCCB(O)O)C(=O)O [2(S)-amino-6-boronohexanoic acid (ABH)]
pKi [2]: 5.74 | pKd [1]: 5.89
